{"source": "patent US20220370471A1", "about": "“COMPOSITION AND METHOD FOR TREATMENT OF HIPPOCAMPAL SYNAPSE DYSFUNCTION AND COGNITIVE DEFICITS IN ALZHEIMER'S DISEASE” (BOARD OF REGENTS, THE UNIVERSITY OF TEXAS SYSTEM, priority 2019, published 2022)", "key": {"hippocampal neurons": {"tested_on": "hippocampal neurons", "test": "Synaptic density (vGLUT1/PSD95) in cultured hippocampal neurons", "assay_type": "cell-based, mouse", "description": "Immunocytochemistry. […] NIS element software was used for image analysis. “Objective Count” dialog was used for intensity measurement. […] The overlapped dots represent synapses.\nPrimary hippocampal neuron culture. Hippocampal neuron cultures were prepared as previously described (15). In brief, mouse hippocampi were dissected from postnatal day 0-1 pups in cold HBSS. Cells were dissociated by using 0.025% trypsin at 37° C. for 15 minutes, followed by 10 times homogenization in ice cold DMEM. Dissociated cells were then passed through a 100 μm cell strainer (Corning) and centrifuged for 5 minutes at 210×g. The pellet was gently resuspended in neuron culture medium (Neurobasal A with 2% B27 supplement, 0.5 mM L-glutamine, Invitrogen) and plated on poly-D-lysine (Sigma-Aldrich) coated Lab-Tek chamber slides (Nunc, 177445) with appropriate densities.\nAgonist treatment on primary cultured neurons. At 14 days in vitro (DIV14) hippocampal neurons were exposed to the synthetic growth hormone secretagogue receptor agonist MK0677 (Tocris, #5272, 1.5 μM) the dopamine D1-like receptor agonist SKF81297 (Sigma-Aldrich, #S143, 2 μM) or a mixture of MK0677 and SKF81297 for 5 minutes. The exposure was followed by immunostaining to examine the effects of Ghsr1α/Drd1 co-activation on Aβ induced synaptic loss or Ghsr1α/Drd1, Aβ/Ghsr1α interaction as described in previous sections."}, "5×FAD mice [1]": {"tested_on": "5×FAD mice", "test": "Amyloid plaque deposition analysis (hippocampus and cortex)", "assay_type": "in vivo, mouse", "description": "Immunocytochemistry. Frozen sections were prepared as previously described. […] Nuclei were labeled with 4′,6-diamidino-2-phenylindole (DAPI, Thermo Fisher Scientific, #R37606, 1 drop/500 ul) as needed. Images were collected on a Nikon confocal microscope. Amyloid plaque deposition analysis. For amyloid plaque deposition analysis, amyloid plaque channel was subjected to “Binary” then “Define Threshold” in NIS element software. The threshold was set to include all the positive staining and the same setting was applied to all images. Volume measurement was then performed for all the plaques as well as each single plaque in both the hippocampal and cortical areas using the ROI selection option. Amyloid plaque-occupied percentage in the hippocampus or cortex and the average individual plaque volume was used to compare amyloid plaque deposition between 5×FAD saline and MK0677 treatment groups."}, "5×FAD mice [2]": {"tested_on": "5×FAD mice", "conditions": "recent study, higher dose of MK0677; cited from earlier work"}}, "data": [{"smiles": "CC(C)(N)C(=O)N[C@H](COCc1ccccc1)C(=O)N1CCC2(CC1)CN(S(C)(=O)=O)c1ccccc12", "note": "[MK0677]", "values": [{"measurement": "synaptic density / oligomeric Aβ42-induced synapse loss", "setting": "hippocampal neurons; oligomeric Aβ42 1 μM, 24 hours, 1.5 μM MK0677, 2 μM SKF81297, or in combination", "value": "did not mitigate"}, {"measurement": "synaptic density, agonist alone", "setting": "hippocampal neurons; without oligomeric Aβ42, MK0677 at doses greater than 1.5 μM, SKF81297 2 μM", "value": "substantially promoted synaptic formation"}, {"measurement": "size of each single Aβ plaque, hippocampus", "setting": "5×FAD mice [1]; 5×FAD mice, MK0677 1.5 mg/kg, daily i.p., 30 days", "value": "did not significantly alter"}, {"measurement": "single plaque size, neocortex", "setting": "5×FAD mice [1]; MK0677-treated 5×FAD mice", "value": "failed to show any influence"}, {"measurement": "total plaque-occupied volume, neocortex", "setting": "5×FAD mice [1]; MK0677-treated 5×FAD mice", "value": "failed to show any influence"}, {"measurement": "neocortical Aβ plaques in young 5×FAD mice", "setting": "5×FAD mice [2]", "value": "lowered neocortical Aβ plaques"}]}]}
